# Source: ChEMBL document CHEMBL6109167, “Novel PARP7 Inhibitors for Treating Cancer” (ACS Med Chem Lett, 2025)
# Molecular target: T1, Protein mono-ADP-ribosyltransferase TIPARP (Homo sapiens, UniProt Q7Z3E1)
# T1 sequence (Q7Z3E1 whole entry): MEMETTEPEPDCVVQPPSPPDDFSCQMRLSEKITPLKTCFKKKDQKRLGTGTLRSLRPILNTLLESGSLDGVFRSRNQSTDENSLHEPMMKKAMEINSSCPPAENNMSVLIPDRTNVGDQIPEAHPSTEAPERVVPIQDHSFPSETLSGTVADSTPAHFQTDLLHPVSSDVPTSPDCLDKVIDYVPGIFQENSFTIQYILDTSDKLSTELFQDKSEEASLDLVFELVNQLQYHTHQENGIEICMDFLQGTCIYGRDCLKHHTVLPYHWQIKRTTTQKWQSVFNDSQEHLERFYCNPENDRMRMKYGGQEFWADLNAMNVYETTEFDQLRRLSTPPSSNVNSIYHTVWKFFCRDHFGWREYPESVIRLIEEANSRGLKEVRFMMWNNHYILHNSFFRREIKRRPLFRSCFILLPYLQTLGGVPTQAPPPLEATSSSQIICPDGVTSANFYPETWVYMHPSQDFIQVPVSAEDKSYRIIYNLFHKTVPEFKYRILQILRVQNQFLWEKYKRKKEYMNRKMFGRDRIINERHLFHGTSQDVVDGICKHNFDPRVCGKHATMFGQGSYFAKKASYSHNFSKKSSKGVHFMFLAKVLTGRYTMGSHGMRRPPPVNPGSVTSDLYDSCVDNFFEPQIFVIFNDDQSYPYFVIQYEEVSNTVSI
# Assay: Inhibition of PARP7 in human NCI-H1373 cells assessed as increase in STAT1 phosphorylation at Tyr701 incubated for 48 hrs by LANCE Ultra sandwich assay
# Type: cell-based
row,SMILES,EC50 [nM]
1,C[C@@H](C[C@H](F)Cn1ccc2cc(-c3ncc(C(F)F)c(N)n3)c(F)cc2c1=O)Oc1cn[nH]c(=O)c1C(F)(F)F,0.786
2,C[C@@H](C[C@@H](F)Cn1ccc2cc(-c3ncc(C(F)F)cn3)c(F)c(F)c2c1=O)Oc1cn[nH]c(=O)c1C(F)(F)F,0.46
3,C[C@@H](C[C@@H](F)Cn1ccc2cc(-c3ncc(C(C)(F)F)cn3)c(F)c(F)c2c1=O)Oc1cn[nH]c(=O)c1C(F)(F)F,0.667
4,C[C@@H](C[C@@H](F)Cn1ccc2cc(-c3ncc(Cl)cn3)c(F)c(F)c2c1=O)Oc1cn[nH]c(=O)c1C(F)(F)F,0.62
5,COc1cnc(-c2cc3ccn(C[C@H](F)C[C@H](C)Oc4cn[nH]c(=O)c4C(F)(F)F)c(=O)c3c(F)c2F)nc1,0.375
6,C[C@@H](C[C@H](F)Cn1cc(F)c2cc(-c3ncc(C(F)F)c(N)n3)c(F)cc2c1=O)Oc1cn[nH]c(=O)c1C(F)(F)F,0.42
